We go through three molecules from patent publication US20250230413A1, “METHODS AND SYSTEMS FOR THE CULTURE OF CELLS AT LIQUID-LIQUID INTERFACES” (Queen Mary University of London, priority 2022, published 2025).

In one experiment the test system is iPSCs. Nature of the experiment: Cardiomyocyte differentiation of iPSCs on βLG-SMCC-VN microdroplets or EBs, flow cytometry of TNNT2+. It is filed as cell-based, human. The conditions noted are these: differentiation initiated 2 days after seeding, CDM3 medium. As for the experimental part: Embryoid bodies Formation. Polyvinyl alcohol (PVA) was dissolved in E8 flex medium overnight to achieve a concentration of 4% PVA. This was then filtered and supplemented with 10 μM Y-27632. iPSCs were dissociated with Gentle Cell Dissociation Reagent according to manufacturer's instructions. After centrifugation, cells were counted. An aliquot of the cell suspension is then taken and centrifuged at 120×g for 3 minutes. The cell pellet was then resuspended in E8 flex with PVA and Y-27632 to achieve a cell concentration of 1×10^6 cells/mL. A petri dish was then filled with sterile water. The lid was then placed upside down and multiple 10 μL drops of the cell suspension was then placed on the lid. The lid was then placed back on the petri dish resulting in hanging droplets. After 24 hours, 30 embryoid bodies were transferred to a well of an ultra-low attachment 6-well plate filled with E8 flex medium.
Cardiomyocyte Differentiation. The iPSCs were seeded on microdroplets and tissue culture plastic controls in E8 flex medium supplemented with Y-27632, a ROCK inhibitor. After 24 hours, the medium was replaced with E8 flex medium. […]
Flow Cytometry. […] Cells were then counted and stained with the staining solution for surface markers. […] Stained cells were analysed with BD LSRII. […] The data was analysed using FlowJo software.

The subject of another experiment is HEK293T cells. The conditions noted are these: HEK293T on BSA interfaces for 22 days.
Experiment [1] has as its system MSCs. In words: Growth of MSCs at crosslinked βLG and BSA nanosheets (Novec 7500 interfaces). It counts as cell-based, human. The conditions noted are these: MSCs growing for 5 days; interfaces crosslinked by sulfo-SMCC (1 mg/ml, pH 7.4), fibronectin coupled. As for the experimental part: (§1) Human Bone Marrow Derived Mesenchymal Stem Cell culture and seeding. hBM-MSCs were purchased from PromoCell and cultured according to the supplier's recommendations.
Generation of fluorinated pinned droplets for cell culture. Thin glass slides (25×60 mm, VWR) were washed with isopropanol and dried under nitrogen, prior to plasma oxidation for 10 min (Henniker Plasma HPT-200). Slides were then placed into an anhydrous ethanol solution (9.5 mL) containing trichloro-1H,1H,2H,2H-perfluorooctyl silane (97%, Sigma-Aldrich) (500 μL) for 1 h, at room temperature. The fluorinated glass slides were cut into chips (1×1 cm) and placed into a 24 well plate (for Hoechst staining), or the glass slides were kept at their original dimensions and embedded on sticky-slide 8 wells plates (Ibidi), for imaging on a confocal microscope. After sterilization with 70% ethanol, the wells were washed (once) and then filled with 2 mL (or 600 μL for the sticky wells) of PBS (pH 7.4 for βLG, Fibrinogen and different BSA types, and pH 10.5 for poly(L-lysine), PLL). 100 μL of fluorinated oil (or 10 μL for the sticky wells), with or without fluorinated surfactant (10 μg/mL) were added to the surface of the glass slide, forming a fluorinated pinned droplet. For samples prepared in 24 well plates, 30 μL of the oil phase was removed using a micropipette, to form a flatter oil droplet. […]
Immuno-fluorescence staining.

Experiment [2] relates to MSCs. Nature of the experiment: Scale-up growth of MSCs on fluorinated oil/MA-BSA bioemulsions in 250 ml flask. It counts as cell-based, human. The conditions noted are these: 15 days, 250 ml flask under agitation. As for the experimental part:
as §1
RGD peptide coupling to biofunctionalised BSA. For the preparation of emulsions, RGD peptide coupling to functionalized BSA molecules was performed first. RGD peptide concentration was determined for each functionalized BSA formulation to enable coupling of 10 peptides per BSA molecule. Custom peptides were designed to allow reaction with functional groups in the modified BSA backbone. GCGGRGDSPG peptide was coupled to NB-BSA via […] in the presence of 1% lithium phenyl-2,4,6-trimethylbenzoylphosphinate (LAP, Sigma-Aldrich), crosslinking was performed with 405 nm blue light for 3 min. at 20 mW/cm2. CGGRGDSPG peptide was conjugated to AC-BSA and MA-BSA via […] in PBS pH 9 for at least 3 hours. The same procedure was used for FITC-RGD bearing peptides.
Conical flask bioreactor scale-up. Scale up of the MA-BSA bioemulsions system was performed on 250 ml polycarbonate Erlenmeyer flasks (Corning) with Vent caps, using a total amount of medium of 50 ml. […] Cell numbers/surface area used in bioemulsions and 2D conditions were the same (1000 cells/cm^2) and calculated assuming and average diameter of 100 μm for the bioemulsions. […]

Experimental for HEK293T cells: Cell seeding on emulsions. HEK293T cells, human iPSCs, Human primary keratinocytes and human MSCs were cultured according to manufacturer's instructions. For cell culture, 500 μL of corresponding medium was transferred per well in a 24 well plate treated with 25 μg/mL poly(L-lysine)-graft-polyethylene glycol (PLL-g-PEG, SuSoS). Then, 100 μL of emulsion were transferred per well. Different cell densities were used depending on the cell type. Being 10^4 cells/well for HEK293T, 4×10^4 cells/well for iPSCs, and 4×10^4 cells/well for MSCs.
Proliferation assay CCK8. Proliferation assays were performed using the Cell Counting Kit-8 (Dojindo, Kumamoto, Japan). HEK293T growing on emulsions were incubated with 100 μl CCK-8 reagent for 4 hours at 37° C. over different time-points, and optical density at 450 nm was measured.

Take `Cc1c[nH]c(-c2cnc(NCCNc3ccc(C#N)cn3)nc2-c2ccc(Cl)cc2Cl)n1` [CHIR99021]: the “Percentage of TNNT2+ (whether differentiation works)” value is “consistently works across conditions except for 230 μm microdroplets when 5 μM of Wnt-C59 is used” in the experiment on iPSCs (CHIR99021 6 μM, varying Wnt-C59); “only works for microdroplets and only when followed by 5 μM Wnt-C59” with iPSCs (higher CHIR99021 concentration (above 6 μM)).
For the molecule Bovine Serum Albumin [BSA], in the experiment on HEK293T cells, the “proliferation after long-term culture” value is on record as “high proliferation”. In the experiment with MSCs [1], the “cell adhesion to the interface (vinculin staining)” value is on record as “excellent cell adhesion”.
MS-BSA: methacrylated BSA: in the experiment with MSCs [2], the “coverage of bioemulsion surface by cells” value was “cells cover all the available surface of the bioemulsions”.
